According to patent publication US4948786A, “Composition for treatment of ischemic disorder in organs” (Takeda Chemical Industries, Ltd., priority 1988, dated 1990):
Structures can show the parent of a compound that is named as a salt.

Assays:
[1] = system: Lipid Peroxidation in Rat Brain Homogenate; details: for Inhibitory Effect (%): final concentration 10^-4 M, 5% homogenate, pH 7.4, 37° C., 1 hour, vs DMSO reference, malonic dialdehyde by TBA method
Acute toxicity (LD50) = details: in vivo, rat
[2] = system: ischemic-reperfused rat heart; test: Reducing activity against the size of infarction in ischemic-reperfused rat heart; format: in vivo, rat (Wistar male); details: i.v.; for Size of Infarction (% of left ventrical) / Inhibition (% of Control): 30 minutes after ligation; for Size of Infarction (% of left ventrical): mean ± SEM, control 35.0 ± 2.9
Method: Reducing activity of α-EPC-Na(DL) against the size of infarction in ischemic-reperfused rat heart:
Wistar male rats (body weight […]) were anesthetized with pentobarbital and subjected to thoracetomy. The left anterior descending coronary artery (LAD) was ligated at its origin for 1 hour. Then, the ligation was released to allow reperfusion. After 30 to 60 minutes reperfusion, the chest was closed and the animals (rats) maintained in conscious state. After 24 hours, the animals (rats) were reanesthetized, and then the heart was excised. The left ventricles were cut parallel to the atrioventricular sulcus into slices. The slices were stained at 37° C. for 15 minutes using triphenyltetrazolium chloride, and the size of infarction was weighed.
α-EPC-Na dissolved in saline solution was administered into the femoral vein at doses of 0.3, 1 and 5 mg/kg 30 minutes after the ligation. For the control group, only saline solution was administered.

SMILES: Cc1c(C)c2c(c(C)c1O)CCC(C)(CCCC(C)CCCC(C)CCCC(C)C)O2 (racemic) [DL-α-tocopherol, reference compound]
- Inhibitory Effect (%) [1]: 50.8 ± 18.5%

SMILES: CC(C)CCCC(C)CCCC(C)CCCC1(C)CCc2cc(OP(=O)(O)OC3=C(O)[C@@H]([C@@H](O)CO)OC3=O)ccc2O1 (mixture of isomers) [TPC-Na(DL), L-Ascorbic acid DL-tocoryl phosphate diester sodium salt]
- Inhibitory Effect (%) [1]: 35.7 ± 2.6%

SMILES: Cc1cc(OP(=O)(O)OC2=C(O)[C@@H]([C@@H](O)CO)OC2=O)c(C)c2c1OC(C)(CCCC(C)CCCC(C)CCCC(C)C)CC2 (mixture of isomers) [β-EPC-K(DL), L-Ascorbic acid DL-β-tocopheryl phosphate diester potassium salt]
- Inhibitory Effect (%) [1]: 58.9 ± 19.4%

SMILES: Cc1cc(OP(=O)(O)OC2=C(O)[C@@H]([C@@H](O)CO)OC2=O)cc2c1O[C@](C)(CCC[C@H](C)CCC[C@H](C)CCCC(C)C)CC2 [δ-EPC-K(D), L-ascorbic acid D-δ-tocopheryl phosphate diester]
- Inhibitory Effect (%) [1]: 38.1 ± 8.3%

SMILES: O=C1O[C@H]([C@@H](O)CO)C(O)=C1O [L-ascorbic acid, reference compound]
- inhibition of lipid peroxidation (in words) ([1]; 10^-4 M, rat brain homogenate): did not inhibit lipid peroxidation
- Inhibitory Effect (%) [1]: 1.6 ± 15.0%

SMILES: Cc1c(OP(=O)(O)OC2=C(O)[C@@H]([C@@H](O)CO)OC2=O)cc2c(c1C)O[C@](C)(CCC[C@H](C)CCC[C@H](C)CCCC(C)C)CC2 [γ-EPC-K(D), L-Ascorbic acid D-γ-tocopheryl phosphate diester potassium salt]
- Inhibitory Effect (%) [1]: 62.0 ± 8.2%

SMILES: Cc1c(C)c2c(c(C)c1OP(=O)(O)OC1=C(O)[C@@H]([C@@H](O)CO)OC1=O)CCC(C)(CCCC(C)CCCC(C)CCCC(C)C)O2 (mixture of isomers) [α-EPC-Na(DL), L-Ascorbic acid, DL-α-tocopheryl phosphate diester sodium salt]
- LD50 (Acute toxicity (LD50); sc, subcutaneous administration): 737 mg/kg
- LD50 (Acute toxicity (LD50); oral administration): > 10000 mg/kg
- Size of Infarction (% of left ventrical) ([2]; 0.3 mg/kg): 32.4 ± 4.3 % of left ventrical
- Inhibition (% of Control) ([2]; 1.0 mg/kg): -22.3 % of Control
- Size of Infarction (% of left ventrical) ([2]; 1.0 mg/kg): 27.2 ± 2.8 % of left ventrical
- size of myocardial infarction, reduced to ([2]; 5 mg/kg): about 50%
- Inhibition (% of Control) ([2]; 5.0 mg/kg): -47.7 % of Control
- Size of Infarction (% of left ventrical) ([2]; 5.0 mg/kg): 18.3 ± 1.1 % of left ventrical
- reduction of the size of myocardial infarction (in words) ([2]; 0.3, 1 and 5 mg/kg): reduced the size of myocardial infarction dose-dependently
- Inhibitory Effect (%) [1]: 61.8 ± 38.1%
